In patent publication US20160000883A1, “COMBINATION OF ACYLATED GLUCAGON ANALOGUES WITH INSULIN ANALOGUES” (ZEALAND PHARMA A/S, priority 2011, published 2016):
Numbered stars: 1 amine (or outer) side, 2 acyl side, 3 side chain; on linkers, the order of the positions; unused ones are H or OH. Square brackets hold non-standard residues; d marks the D form. Side chains are listed from the residue outwards. * marks the point of attachment. γGlu = O=C(O)[C@H](CCC(=O)[*:2])N[*:1]; Palmitoyl = CCCCCCCCCCCCCCCC(=O)*; Aib = CC(C)(N)C(=O)O

Columns and labels:
[1] = tested on: db/db (BKS.Cg-m+/+Lepr^db/J) female mice; assay: 21-day s.c. treatment of db/db mice: body weight, food and water intake; format: in vivo; conditions: 21 days, bi-daily s.c., Lantus 3 U, Levemir 6 U, Compound X 10 nmol/kg, vs. vehicle (FIG. 1)
Excerpt: Eighty (80) db/db (BKS.Cg-m+/+Lepr^db/J) female mice aged 7 weeks were obtained from Charles River, US. The mice were acclimatized in their new environment and allowed free access to normal chow (Altromin 1324, Brogaarden A/S, Gentofte, Denmark) and domestic quality tap water added citric acid to pH ˜3.6, except as indicated. The mice were group-housed with 3-4 mice per cage in a light-, temperature-, and humidity-controlled room (12-hour light: 12-hour dark cycle, with lights on at 06.00 AM to 06.00 PM hour; 24° C.; 50% relative humidity).
Prior to treatment, in weeks 1-3, a tail-blood sample for the determination of blood glucose was obtained on non-fasted animals to determine diabetic state and to identify outliers, which were excluded. The inclusion criteria of BG>16 mM glucose was applied.
Stratification of the animals was based on HbA1c levels (primary) and BW as measured at baseline (day −4). Thus, on day −3, the 66 mice were selected based on the pre-screen and baseline measurements into 6 study groups of 11 mice (3-4 mice/cage).
(§1) All mice were mock treated for at 3 days (BID, SC, 100 μl vehicle) to acclimatize the animals to handling and injections. Dosing (day 0, mice at age 12 weeks as in pilot study) started in the afternoon on that day, and the mice were treated twice daily with 2 SC injections according to Table 1 for a total of 21 days (4 injections per day). Thus, last day of dosing was day 21 in the morning. The daily injections took place between 7:00 and 8:00 and between 14:00 and 15:00 with fresh solutions prepared in the morning (only Compound X). […]
Dosing solutions of Compound X for the weekend were prepared the Friday before. […] Throughout the study (day −2 to day 21) body weights (8W) were recorded daily and used to administer the body weight-corrected doses of substances. Food and water intake (FI, WI) was measured every day (day −3 to day 21) as cage averages.
In Vivo: female db/db mice aged 10-11 weeks were treated for 21 days with bi-daily s.c. injections. […] Fasting blood glucose (BG) was measured before and after 21 days of treatment.

[2] = tested on: db/db (BKS.Cg-m+/+Lepr^db/J) female mice; assay: 21-day s.c. treatment of db/db mice: fasting blood glucose (delta-BG); format: in vivo; conditions: fasted female db/db mice, over 21 days of bi-daily s.c. treatment; Lantus 3 U, Levemir 6 U, Compound X 10 nmol/kg; average +/- SEM (FIG. 4)
Experimental: as §1, with “X). Insulin was kept in the refrigerator.” for “X).”
On day 21 (before termination) in 8 h fasted mice a blood sample (350 μl) was taken, and BG, HbA1c, and p-insulin were measured as described above. […]
The whole blood glucose level was analyzed on tail-blood samples by the immobilized glucose oxidase method (Elite Auto analyser, Bayer, Denmark) following the manufacturer's protocol. Blood samples (sample size 30 μl) were analyzed for HbA1c using the Cobas c111 analyzer (Roche Diagnostics, Mannheim, Germany) in single determinations by Department of Molecular Pharmacology. Plasma (sample size 5 μl) and insulin content was measured using an insulin alpha-LISA assay in triplicate by Department of Molecular Pharmacology. A measure of peptide exposure in plasma (sample size 100 μl) will be determined by the Department of Bioanalysis and Pharmacokinetics. […]

Substance | body weight (BW) change [1] | delta-BG (delta-Blood Glucose) [2] [mM]
H-H-Aib-QGTFTSDYSKYLDS-K(Hexadecanoyl-isoGlu)-AAHDFVEWLLSA-NH2 (H-H[Aib]QGTFTSDYSKYLDSK([γGlu-Palmitoyl])AAHDFVEWLLSA-NH2; SMILES CCCCCCCCCCCCCCCC(=O)N[C@@H](CCC(=O)NCCCC[C@H](NC(=O)[C@H](CO)NC(=O)[C@H](CC(=O)O)NC(=O)[C@H](CC(C)C)NC(=O)[C@H](Cc1ccc(O)cc1)NC(=O)[C@H](CCCCN)NC(=O)[C@H](CO)NC(=O)[C@H](Cc1ccc(O)cc1)NC(=O)[C@H](CC(=O)O)NC(=O)[C@H](CO)NC(=O)[C@@H](NC(=O)[C@H](Cc1ccccc1)NC(=O)[C@@H](NC(=O)CNC(=O)[C@H](CCC(N)=O)NC(=O)C(C)(C)NC(=O)[C@@H](N)Cc1c[nH]cn1)[C@@H](C)O)[C@@H](C)O)C(=O)N[C@@H](C)C(=O)N[C@@H](C)C(=O)N[C@@H](Cc1c[nH]cn1)C(=O)N[C@@H](CC(=O)O)C(=O)N[C@@H](Cc1ccccc1)C(=O)N[C@H](C(=O)N[C@@H](CCC(=O)O)C(=O)N[C@@H](Cc1c[nH]c2ccccc12)C(=O)N[C@@H](CC(C)C)C(=O)N[C@@H](CC(C)C)C(=O)N[C@@H](CO)C(=O)N[C@@H](C)C(N)=O)C(C)C)C(=O)O) [Compound X, acylated glucagon analogue, glucagon-GLP-1 dual agonist] | significant decrease | 
Insulin detemir [Levemir] | significant increase | -2.1 ± 1.6
Insulin glargine [Lantus] | significant increase | -9.6 ± 1.9
